Data: patent publication US20080103152A1, “Novel Diazabicyclononene Derivative” (Actelion Pharmaceuticals Ltd, priority 2004, published 2008)

Key:
[1] = biological target: T1, recombinant human renin (Homo sapiens, UniProt P00797); assay: Primary renin inhibition assay: IC50 in buffer, 384 well MTP (Ang I measured by EIA); assay type: biochemical; conditions: human tetradecapeptide substrate, 37° C. for 3 h, read-out: IC50 of renin inhibition (Ang I decrease)
T1 sequence (P00797 67-406): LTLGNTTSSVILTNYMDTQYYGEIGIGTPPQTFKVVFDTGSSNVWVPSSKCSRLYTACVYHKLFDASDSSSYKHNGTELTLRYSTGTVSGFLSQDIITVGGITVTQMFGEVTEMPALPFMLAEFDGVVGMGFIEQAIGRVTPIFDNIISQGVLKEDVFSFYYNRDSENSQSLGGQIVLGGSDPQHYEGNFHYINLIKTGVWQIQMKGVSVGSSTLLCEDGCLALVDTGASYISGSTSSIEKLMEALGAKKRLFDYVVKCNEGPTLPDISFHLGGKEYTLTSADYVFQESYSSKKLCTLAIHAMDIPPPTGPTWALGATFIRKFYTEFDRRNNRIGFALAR
Method: 1. Enzyme Immuno Assay (EIA) to Estimate Ang I Accumulation and Renin Inhibition
1.1 Preparation of Ang I-BSA Conjugate
1.3 mg (1 μmol) of Ang I [1-10 (Bachem, H-1680)] and 17 mg (0.26 μmol) of BSA (Fluka, 05475) were dissolved in 4 mL of 0.1M phosphate buffer, pH 7.4, after which 2 mL of a 1:100 dilution of glutaraldehyde in H2O (Sigma G-5882) was added dropwise. The mixture was incubated overnight at 4° C., then dialyzed against 2 liters of 0.9% NaCl, twice for 4 h at rt, followed by dialysis against 2 liters of PBS 1× overnight at rt. The solution was then filtered with a Syringe filter, 0.45 μm (Nalgene, Cat. No. 194-2545). The conjugate can be stored in polypropylene tubes in 0.05% sodium azide at 4° C. for at least 12 months.
1.2 Preparation of BSA-Ang I Coated MTP […]
The renin assay was adapted from an assay described before (Fischli W. et al., Hypertension, 1991, 18:22-31) and consists of two steps: in the first step, recombinant human renin is incubated with its substrate (commercial human tetradecapeptide renin substrate) to create the product Angiotensin I (Ang I). In the second step, the accumulated Ang I is measured by an immunological assay (enzyme immuno assay, EIA). […]

[2] = system: double transgenic rats with human renin and human angiotensinogen; assay: Hemodynamic measurements (telemetry method), mean arterial blood pressure; assay type: in vivo, rat; conditions: for blood pressure decrease (maximal decrease of mean arterial pressure versus control group): hypertensive female double transgenic rats
Method: Hemodynamic Measurements (Telemetry Method)
Animals—Female double transgenic rats with human renin and human angiotensinogen were purchased from RCC Ltd, Füllingsdorf, Switzerland. All animals were maintained under identical conditions and had free access to normal pelleted rat chow and water. Rats were initially treated with enalapril (1 mg/kg/day) during 2 months. After approximately two weeks following cessation of enalapril treatment the double transgenic rats become hypertensive and reach mean arterial blood pressures in the range of 160-170 mmHg.
Transmitter implantation—The rats were anaesthetised with a mixture of 90 mg/kg Ketamin-HCl (Ketavet, Parke-Davis, Berlin FRG) and 10 mg/kg xylazin (Rompun, Bayer, Leverkusen, FRG) i.p. The pressure transmitter was implanted under aseptic conditions into the peritoneal cavity with the sensing catheter placed in the descending aorta below the renal arteries pointing upstream. The transmitter was sutured to the abdominal musculature and the skin closed.
Telemetry-System—Telemetry units were obtained from Data Sciences (St. Paul, Minn.). […] The tip of the catheter was filled with a viscous gel that prevents blood reflux and was coated with an antithrombogenic film to inhibit thrombus formation. The implants (length=[…], diameter=1.2 cm) weighted 9 g and have a typical battery life of 6 months. A receiver platform (RPC-1, Data Sciences) connected the radio signal to digitized input that was sent to a dedicated personal computer (Compaq, deskpro). Arterial pressures were calibrated by using an input from an ambient-pressure reference (APR-1, Data Sciences). Systolic, mean and diastolic blood pressure was expressed in millimeter of mercury (mmHg).
[…] The effect of the test substance is expressed as maximal decrease of mean arterial pressure (MAP) in the treated group versus the control group.

O=C(C1=C(c2ccc(CCCOc3c(F)ccc(F)c3Cl)cc2)C[C@@H]2CNC[C@H]1N2)N(Cc1cccc(Cl)c1Cl)C1CC1 [Compound (I′), (1R,5S)-7-{4-[3-(2-Chloro-3,6-difluorophenoxy)propyl]phenyl}-3,9-diazabicyclo[3.3.1]non-6-ene-6-carboxylic acid cyclopropyl-(2,3-dichlorobenzyl)amide]
IC50 [1]: 0.5 nM
activity in the animal model (in words) ([2]; oral gavage, double transgenic rats): active
blood pressure decrease (maximal decrease of mean arterial pressure versus control group) ([2]; single oral dose of 3 mg/kg): 13 mmHg
blood pressure decrease (maximal decrease of mean arterial pressure versus control group) ([2]; single oral dose of 10 mg/kg): 26 mmHg
